According to US8349878B2 (Laboratorios del Dr. Esteve, S.A., priority 2006, dated 2013):
Counter-ions that a name gives are not always drawn. Like-named read-outs stand apart in the source and are kept apart here.

Target: T1, σ1-receptor (Cavia porcellus, UniProt Q60492)
T1 construct: guinea pig brains were homogenized; from tissue; host or cells: guinea pig brain membranes
Assay: Sigma-1 receptor binding assay, [3H](+)-pentazocine displacement in guinea pig brain membranes
Details: for inhibition at 0.01 µM: read-out: Sigma-1 Inhibition percent (0.01 μM); for inhibition at 0.1 µM: read-out: Sigma-1 Inhibition percent (0.1 μM)
Method: The following protocol was followed:
In brief, guinea pig brains were homogenized in 10 vols. (w/v) of Tris-HCl 50 mM 0.32 M sucrose, pH 7.4, with a Kinematica Polytron PT 3000 at 15000 r.p.m. for 30 s. The homogenate was centrifuged at 1000 g for 10 min at 4° C. and the supernatants collected and centrifuged again at 48000 g for 15 min at 4° C. The pellet was resuspended in 10 volumes of Tris-HCl buffer (50 mM, pH 7.4), incubated at 37° C. for 30 min, and centrifuged at 48000 g for 20 min at 4° C. Following this, the pellet was resuspended in fresh Tris-HCl buffer (50 mM, pH 7.4) and stored on ice until use.
Each assay tube contained 10 μL of [^3H](+)-pentazocine (final concentration of 0.5 nM), 900 μL of the tissue suspension to a final assay volume of 1 mL and a final tissue concentration of approximately 30 mg tissue net weight/mL. Non-specific binding was defined by addition of a final concentration of 1 μM haloperidol. […] Filters were then washed with four times with 4 mL of cold Tris-HCl buffer (50 mM, pH 7.4). Following addition of scintillation cocktail, the samples were allowed to equilibrate overnight.

[1] = [3H](+)-pentazocine 0.5 nM, guinea pig brain membranes, read-out: Sigma-1 Ki (nm) Displ. 10^−7 M (10^−8 M)
[2] = compound at 0.01 μM, [3H](+)-pentazocine 0.5 nM, guinea pig brain membranes
[3] = compound at 0.1 μM, [3H](+)-pentazocine 0.5 nM, guinea pig brain membranes

T1 sequence (Q60492 whole entry): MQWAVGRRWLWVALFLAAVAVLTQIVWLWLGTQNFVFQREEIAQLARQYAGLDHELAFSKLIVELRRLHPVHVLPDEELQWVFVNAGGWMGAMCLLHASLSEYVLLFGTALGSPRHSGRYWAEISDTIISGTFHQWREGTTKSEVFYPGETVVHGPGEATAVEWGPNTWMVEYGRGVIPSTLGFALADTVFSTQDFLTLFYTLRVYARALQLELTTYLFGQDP

| Structure (SMILES) | Ki [1] [nM] | inhibition at 0.01 µM [2] [%] | inhibition at 0.1 µM [3] [%] | Ki [nM] | inhibition at 0.01 µM [%] | inhibition at 0.1 µM [%] |
| --- | --- | --- | --- | --- | --- | --- |
| Cc1nc(SCCN2CCOCC2)nn1-c1ccc(Cl)c(Cl)c1 [compound 1, oxalate] | 1.1 | 102 | 107 | – | – | – |
| Cc1nc(SCCN2CCCC2)nn1-c1ccc(Cl)c(Cl)c1 [compound 3, oxalate] | 1.4 | 103 | 106 | – | – | – |
| Cc1nc(SCCN(C(C)C)C(C)C)nn1-c1ccc(Cl)c(Cl)c1 [compound 4, oxalate] | – | – | – | 1.1 | 105 | 109 |
| CCN(CC)CCSc1nc(C)n(-c2ccc(Cl)c(Cl)c2)n1 [compound 5, 2-(1-(3,4-dichlorophenyl)-5-methyl-1H-1,2,4-triazole-3-yl-thio]-N,N-diethyl ethanamine oxalate] | 1.1 | 104 | 109 | – | – | – |
| Cc1nc(SCCCN2CCOCC2)nn1-c1ccc(Cl)c(Cl)c1 [compound 7, 4-[3-(1-(3,4-Dichlorophenyl)-5-methyl-1H-1,2,4-triazol-3-ylthio)propyl]morpholine oxalate] | 8.2 | 67.8 | 85.5 | – | – | – |
| Cc1nc(SCCCN2CCC(c3ccccc3)CC2)nn1-c1ccc(Cl)c(Cl)c1 [compound 9, 1-[3-(1-(3,4-dichlorophenyl)-5-methyl-1H-1,2,4-triazol-3-ylthio)propyl]-4-phenylpiperidine oxalate] | 9 | 74.2 | 89 | – | – | – |
| Cc1nc(SCCCCN2CCC(c3ccccc3)CC2)nn1-c1ccc(Cl)c(Cl)c1 [compound 10, 1-[4-(1-(3,4-dichlorophenyl)-5-methyl-1H-1,2,4-triazol-3-yl-thio)butyl]-4-phenylpiperidine oxalate] | – | 27.3 | 88.1 | – | – | – |
| Cc1nc(SCCCCN2CCOCC2)nn1-c1ccc(Cl)c(Cl)c1 [compound 11, 4-[4-(1-(3,4-dichlorophenyl)-5-methyl-1H-1,2,4-triazol-3-yl-thio)butyl]morpholine oxalate] | – | 14.5 | 66.9 | – | – | – |
| Cc1nc(SCCCCCN2CCCCC2)nn1-c1ccc(Cl)c(Cl)c1 [compound 12, 1-[5-(1-(3,4-dichlorophenyl)-5-methyl-1H-1,2,4-triazol-3-ylthio)pentyl]piperidine oxalate] | – | 52.1 | 82.8 | – | – | – |
| Cc1nc(SCCCCCN2CCOCC2)nn1-c1ccc(Cl)c(Cl)c1 [compound 13, 4-[5-(1-(3,4-Dichlorophenyl)-5-methyl-1H-1,2,4-triazol-3-ylthio)pentyl]morpholine oxalate] | – | 4.3 | 58.2 | – | – | – |
| Cc1nc(SCCCCCN2CCCC2)nn1-c1ccc(Cl)c(Cl)c1 [compound 14, 1-[5-(1-(3,4-dichlorophenyl)-5-methyl-1H-1,2,4-triazol-3-ylthio)pentyl]pyrrolidine oxalate] | – | 6 | 52.5 | – | – | – |
| Cc1nc([S+]([O-])CCN2CCOCC2)nn1-c1ccc(Cl)c(Cl)c1 (stereo not shown) [compound 16, 4-[2-(1-(3,4-dichlorophenyl)-5-methyl-1H-1,2,4-triazol-3-yl-sulfinyl)-ethyl]-morpholine] | – | 28.6 | 42 | – | – | – |
| Cc1nc([S+]([O-])CCN(C(C)C)C(C)C)nn1-c1ccc(Cl)c(Cl)c1 (stereo not shown) [compound 17] | – | – | – | 4 | 62.3 | 93.9 |
| Cc1nc([S+]([O-])CCCCN2CCC(c3ccccc3)CC2)nn1-c1ccc(Cl)c(Cl)c1 (stereo not shown) [compound 18, 1-[4-(1-(3,4-Dichlorophenyl)-5-methyl-1H-1,2,4-triazol-3-ylsulfinyl)butyl]-4-phenylpiperidine] | – | -39.5 | 37.2 | – | – | – |
| CCN(CC)CCS(=O)(=O)c1nc(C)n(-c2ccc(Cl)c(Cl)c2)n1 [compound 20, 2-[1-(3,4-Dichlorophenyl)-5-methyl-1H-1,2,4-triazol-3-ylsulfonyl]-N,N-diethylethanamine] | 16.7 | 51.2 | 82.1 | – | – | – |
| Cc1nc(S(=O)(=O)CCCCN2CCOCC2)nn1-c1ccc(Cl)c(Cl)c1 [compound 21, 4-[4-(1-(3,4-Dichlorophenyl)-5-methyl-1H-1,2,4-triazol-3-yl-sulfonyl)-butyl]morpholine] | – | 8.3 | 20.5 | – | – | – |
| CCN(CC)CCOc1nc(C)n(-c2ccc(Cl)c(Cl)c2)n1 [compound 23, 2-[1-(3,4-Dichlorophenyl)-5-methyl-1H-1,2,4-triazol-3-yloxy]-N,N-diethylethanamine] | – | 32.2 | 85 | – | – | – |
| CCN(CC)CCOc1nc(C)n(-c2ccccc2)n1 [compound 26, 2-(5-methyl-1-phenyl-1H-1,2,4-triazol-3-yloxy)-N,N-diethyl ethanamine] | – | 7.3 | 15.2 | – | – | – |
| Cc1nc(OCCN2CCOCC2)nn1-c1ccccc1 [compound 28, 4-[2-(5-methyl-1-phenyl-1H-1,2,4-triazol-3-yloxy)ethyl]morpholine] | – | -20.9 | -3.4 | – | – | – |
| Cc1nc(OCCN2CCCCC2)nn1-c1ccccc1 [compound 29, 1-[2-(5-methyl-1-phenyl-1H-1,2,4-triazol-3-yloxy)ethyl]piperidine] | – | 5.8 | 46.1 | – | – | – |
| Cc1nc(OCCCCN2CCOCC2)nn1-c1ccccc1 [compound 30, 4-[4-(5-methyl-1-phenyl-1H-1,2,4-triazol-3-yloxy)butyl]morpholine] | – | -15.1 | 18.3 | – | – | – |

Further lines, with some results ahead:

| Ki [1] [nM] | inhibition at 0.01 µM [2] [%] | inhibition at 0.1 µM [3] [%] | Structure (SMILES) | Ki [nM] | inhibition at 0.01 µM [%] | inhibition at 0.1 µM [%] |
| --- | --- | --- | --- | --- | --- | --- |
| 0.8 | 105 | 109 | Cc1nc(SCCN2CCCCC2)nn1-c1ccc(Cl)c(Cl)c1 [compound 2, 1-[2-(3,4-dichlorophenyl)-5-methyl-1H-1.2.4-triazole-3-yl-thioethyl]piperidine oxalate] | – | – | – |
| – | 90.6 | 99.2 | Cc1nc(SCCN2CCCCCC2)nn1-c1ccc(Cl)c(Cl)c1 [compound 6, 1-[2-(1-(3,4-dichlorophenyl)-5-methyl-1H-1,2,4-triazol-3-yl-thio)ethyl]azepane oxalate] | – | – | – |
| 2.1 | 57.4 | 82.5 | Cc1nc(SCCCN2CCCC2)nn1-c1ccc(Cl)c(Cl)c1 [compound 8, 1-[3-(1-(3,4-dichlorophenyl)-5-methyl-1H-1,2,4-triazol-3-yl-thio)propyl]-4-pyrrolidine oxalate] | – | – | – |
| 7 | 47.2 | 88.9 | Cc1nc([S+]([O-])CCN2CCCC2)nn1-c1ccc(Cl)c(Cl)c1 (stereo not shown) [compound 15, 1-[2-(1-(3,4-dichlorophenyl)-5-methyl-1H-1,2,4-triazol-3-yl-sulfinyl)ethyl]pyrrolidine] | – | – | – |
| 2.2 | 71.8 | 96.4 | Cc1nc(S(=O)(=O)CCN2CCCC2)nn1-c1ccc(Cl)c(Cl)c1 [compound 19] | – | – | – |
| 3.1 ± 1.6 | 54.3 | 94.8 | Cc1nc(OCCN2CCCCC2)nn1-c1ccc(Cl)c(Cl)c1 [compound 22] | – | – | – |
| – | 39.5 | 91.8 | Cc1nc(OCCN2CCCC2)nn1-c1ccc(Cl)c(Cl)c1 [compound 24, 1-[2-(1-(3,4-Dichlorophenyl)-5-methyl-1H-1,2,4-triazol-3-yloxy)ethyl]pyrrolidine] | – | – | – |
| – | 33.8 | 83.8 | Cc1nc(OCCN2CCOCC2)nn1-c1ccc(Cl)c(Cl)c1 [compound 25, 4-[2-(1-(3,4-Dichlorophenyl)-5-methyl-1H-1,2,4-triazol-3-yloxy)ethyl]morpholine oxalate] | – | – | – |
| – | 8.1 | 30.4 | Cc1nc(OCCN2CCCC2)nn1-c1ccccc1 [compound 27, 1-[2-(5-methyl-1-phenyl-1H-1,2,4-triazol-3-yloxy)ethyl]pyrrolidine] | – | – | – |
